Biological target: T1, mTOR (Homo sapiens, UniProt P42345)
T1 construct: purchased Invitrogen PR8683A
Experiment: mTOR HTR-FRET assay
Format: biochemical
Details: read-out: Act. Level (IC50 in mTor HTR-FRET assay)
Outline: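 Test compounds, taken from 10 mM DMSO stocks and diluted, were mixed with mTOR enzyme (0.200 μg/mL) in Tris buffer pH 7.4 with 100 mM NaCl, 0.1% Tween-20 and 1 mM DTT. ATP/substrate addition initiated the reaction, alongside compound-free controls.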

T1 sequence (P42345 1360-2549 limits assumed): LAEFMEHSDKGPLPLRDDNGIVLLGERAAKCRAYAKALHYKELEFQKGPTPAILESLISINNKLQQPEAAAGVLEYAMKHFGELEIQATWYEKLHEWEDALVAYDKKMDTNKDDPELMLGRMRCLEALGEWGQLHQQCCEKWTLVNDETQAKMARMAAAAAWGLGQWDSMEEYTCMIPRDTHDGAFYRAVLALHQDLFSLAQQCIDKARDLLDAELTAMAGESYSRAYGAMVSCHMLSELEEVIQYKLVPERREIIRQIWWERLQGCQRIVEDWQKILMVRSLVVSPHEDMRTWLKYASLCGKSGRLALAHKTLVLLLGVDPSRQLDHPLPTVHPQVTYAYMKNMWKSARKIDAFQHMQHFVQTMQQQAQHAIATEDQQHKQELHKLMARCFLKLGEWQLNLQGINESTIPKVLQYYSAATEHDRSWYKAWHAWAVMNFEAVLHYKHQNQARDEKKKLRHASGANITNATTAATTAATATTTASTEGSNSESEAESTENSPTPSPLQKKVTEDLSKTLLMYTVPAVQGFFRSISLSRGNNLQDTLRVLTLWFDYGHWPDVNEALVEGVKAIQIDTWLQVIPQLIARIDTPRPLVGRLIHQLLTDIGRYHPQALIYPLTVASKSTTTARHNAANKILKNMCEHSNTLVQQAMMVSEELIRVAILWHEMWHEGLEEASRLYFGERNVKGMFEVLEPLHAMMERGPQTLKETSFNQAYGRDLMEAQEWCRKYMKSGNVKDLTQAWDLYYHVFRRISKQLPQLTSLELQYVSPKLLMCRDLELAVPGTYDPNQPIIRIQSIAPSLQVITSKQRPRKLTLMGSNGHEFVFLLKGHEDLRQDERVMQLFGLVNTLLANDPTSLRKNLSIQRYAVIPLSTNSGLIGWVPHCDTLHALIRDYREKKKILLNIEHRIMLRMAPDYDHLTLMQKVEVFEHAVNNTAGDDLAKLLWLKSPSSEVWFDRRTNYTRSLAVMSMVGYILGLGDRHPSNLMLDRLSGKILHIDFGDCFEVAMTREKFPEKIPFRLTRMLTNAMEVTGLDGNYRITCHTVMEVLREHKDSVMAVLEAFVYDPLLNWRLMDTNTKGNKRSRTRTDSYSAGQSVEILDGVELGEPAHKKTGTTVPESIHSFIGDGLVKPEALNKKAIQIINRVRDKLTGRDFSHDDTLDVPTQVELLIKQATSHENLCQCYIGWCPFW

Row | SMILES | IC50
1 | COCCN1C(=O)CNc2ncc(-c3ccc(-c4nc[nH]n4)c(F)c3C)nc21 [Example 244, 7-(3-fluoro-2-methyl-4-(1H-1,2,4-triazol-3-yl)phenyl)-1-(2-methoxyethyl)-3,4-dihydropyrazino[2,3-b]pyrazin-2(1H)-one] | 0.005 to 250 nM
2 | CC(C)(O)c1ccc(-c2cnc3c(n2)N(Cc2cccc(C(F)(F)F)c2)C(=O)CN3)cn1 [Example 258, 7-(6-(2-hydroxypropan-2-yl)pyridin-3-yl)-1-(3-(trifluoromethyl)benzyl)-3,4-dihydropyrazino[2,3-b]pyrazin-2(1H)-one] | 0.005 to 250 nM
3 | CCN1c2nc(-c3ccc(-c4nnc[nH]4)cc3C)cnc2NC(=O)C1(C)C [Example 72, 4-ethyl-3,3-dimethyl-6-(2-methyl-4-(4H-1,2,4-triazol-3-yl)phenyl)-3,4-dihydropyrazino[2,3-b]pyrazin-2(1H)-one] | 0.005 to 250 nM
4 | CO[C@H]1CC[C@H](N2CC(=O)Nc3ncc(-c4ccc(-c5nc[nH]n5)c(F)c4C)nc32)CC1 [Example 29, 6-(3-fluoro-2-methyl-4-(1H-1,2,4-triazol-3-yl)phenyl)-4-(trans-4-methoxycyclohexyl)-3,4-dihydropyrazino[2,3-b]pyrazin-2(1H)-one] | 0.005 to 250 nM
5 | Cc1cc(-c2nnc[nH]2)ccc1-c1cnc2c(n1)N1CCCCC1C(=O)N2 (stereo not shown) [Example 120, 9-(4-(4H-1,2,4-triazol-3-yl)-2-methylphenyl)-6,11,4a-trihydropiperidino[1,2-e]pyrazino[2,3-b]pyrazin-5-one] | 0.005 to 250 nM
6 | C[C@@H](O)c1ccc(-c2cnc3c(n2)N(CCC2CCOCC2)C(=O)CN3)cn1 [Example 254, (R)-7-(6-(1-hydroxyethyl)pyridin-3-yl)-1-(2-(tetrahydro-2H-pyran-4-yl)ethyl)-3,4-dihydropyrazino[2,3-b]pyrazin-2(1H)-one] | 0.005 to 250 nM
7 | O=C1CNc2ncc(-c3ccc(O)nc3)nc2N1CCC1CCOCC1 [Example 185, 7-(6-hydroxypyridin-3-yl)-1-(2-(tetrahydro-2H-pyran-4-yl)ethyl)-3,4-dihydropyrazino[2,3-b]pyrazin-2(1H)-one] | 1000 to 10000 nM
8 | Cc1cc(-c2nc[nH]n2)ncc1-c1cnc2c(n1)N(C(C)C)C(=O)CN2 [Example 179, 1-isopropyl-7-(4-methyl-6-(1H-1,2,4-triazol-3-yl)pyridin-3-yl)-3,4-dihydropyrazino[2,3-b]pyrazin-2(1H)-one] | 0.005 to 250 nM
9 | O=C1CNc2ncc(-c3cnc4[nH]ccc4c3)nc2N1CCC1CCOCC1 [Example 224, 7-(1H-pyrrolo[2,3-b]pyridin-5-yl)-1-(2-(tetrahydro-2H-pyran-4-yl)ethyl)-3,4-dihydropyrazino[2,3-b]pyrazin-2(1H)-one] | 0.005 to 250 nM
10 | O=C1CNc2ncc(-c3cccc4[nH]cnc34)nc2N1CCC1CCOCC1 [Example 156, 7-(1H-benzo[d]imidazol-4-yl)-1-(2-(tetrahydro-2H-pyran-4-yl)ethyl)-3,4-dihydropyrazino[2,3-b]pyrazin-2(1H)-one] | 500 to 1000 nM
11 | CO[C@H]1CC[C@@H](N2C(=O)CNc3ncc(-c4ccc(-c5nnc[nH]5)nc4C)nc32)C1 [Example 228, 1-((1R,3S)-3-methoxycyclopentyl)-7-(2-methyl-6-(4H-1,2,4-triazol-3-yl)pyridin-3-yl)-3,4-dihydropyrazino[2,3-b]pyrazin-2(1H)-one] | 0.005 to 250 nM
12 | Cc1cc(-c2nnc[nH]2)c(F)cc1-c1cnc2c(n1)N(CCC1CCOCC1)C(=O)CN2 [Example 247, 7-(5-fluoro-2-methyl-4-(4H-1,2,4-triazol-3-yl)phenyl)-1-(2-(tetrahydro-2H-pyran-4-yl)ethyl)-3,4-dihydropyrazino[2,3-b]pyrazin-2(1H)-one] | 0.005 to 250 nM
13 | CO[C@@H]1CC[C@@H](N2CC(=O)Nc3ncc(-c4ccc(-c5nnc[nH]5)nc4C)nc32)C1 [Example 40, 4-((1R,3R)-3-methoxycyclopentyl)-6-(2-methyl-6-(4H-1,2,4-triazol-3-yl)pyridin-3-yl)-3,4-dihydropyrazino[2,3-b]pyrazin-2(1H)-one] | 0.005 to 250 nM
14 | Nc1ccc(-c2cnc3c(n2)N(CCC2CCOCC2)C(=O)CN3)cn1 [Example 196, 7-(6-aminopyridin-3-yl)-1-(2-(tetrahydro-2H-pyran-4-yl)ethyl)-3,4-dihydropyrazino[2,3-b]pyrazin-2(1H)-one] | 0.005 to 250 nM
15 | COCCN1C(=O)CNc2ncc(-c3ccc(-c4nc[nH]n4)nc3)nc21 [Example 163, 7-(6-(1H-1,2,4-triazol-3-yl)pyridin-3-yl)-1-(2-methoxyethyl)-3,4-dihydropyrazino[2,3-b]pyrazin-2(1H)-one] | 0.005 to 250 nM
16 | Cc1cc(-c2cnc3c(n2)N(CCC2CCOCC2)CC(=O)N3)cc2[nH]cnc12 [Example 147, 6-(4-methyl-1H-benzo[d]imidazol-6-yl)-4-(2-(tetrahydro-2H-pyran-4-yl)ethyl)-3,4-dihydropyrazino[2,3-b]pyrazin-2(1H)-one] | 500 to 1000 nM
17 | CO[C@H]1CC[C@H](N2CC(=O)Nc3ncc(-c4ccc(C(C)(C)O)nc4)nc32)C1 [Example 55, 6-(6-(2-hydroxypropan-2-yl)pyridin-3-yl)-4-((1S,3S)-3-methoxycyclopentyl)-3,4-dihydropyrazino[2,3-b]pyrazin-2(1H)-one] | 1000 to 10000 nM

Row | SMILES | IC50
18 | Cc1cc(-c2cnc3c(n2)N(Cc2cccc(C(F)(F)F)c2)CC(=O)N3)cc2nc(N)[nH]c12 [Example 136, 6-(2-amino-7-methyl-1H-benzo[d]imidazol-5-yl)-4-(3-(trifluoromethyl)benzyl)-3,4-dihydropyrazino[2,3-b]pyrazin-2(1H)-one] | 500 to 1000 nM
19 | O=C1CN(CCC2CCOCC2)c2nc(-c3ccc4cc[nH]c4c3)cnc2N1 [Example 44, 6-(1H-indol-6-yl)-4-(2-(tetrahydro-2H-pyran-4-yl)ethyl)-3,4-dihydropyrazino[2,3-b]pyrazin-2(1H)-one] | 250 to 500 nM
20 | Cc1cc(-c2nnc[nH]2)ccc1-c1cnc2c(n1)NC1(CCC1)C(=O)N2 [Example 65, 7′-(2-methyl-4-(4H-1,2,4-triazol-3-yl)phenyl)-1′H-spiro[cyclobutane-1,2′-pyrazino[2,3-b]pyrazin]-3′(4′H)-one] | 250 to 500 nM
21 | CC(C)(C)CN1CC(=O)Nc2ncc(-c3ccc(C(C)(C)O)nc3)nc21 [Example 105, 6-(6-(2-hydroxypropan-2-yl)pyridin-3-yl)-4-neopentyl-3,4-dihydropyrazino[2,3-b]pyrazin-2(1H)-one] | 250 to 500 nM
22 | Cc1cc(-c2cnc3c(n2)N(CCC2CCOCC2)C(=O)CN3)cc2[nH]c(N)nc12 [Example 269, 7-(2-amino-4-methyl-1H-benzo[d]imidazol-6-yl)-1-(2-(tetrahydro-2H-pyran-4-yl)ethyl)-3,4-dihydropyrazino[2,3-b]pyrazin-2(1H)-one] | 0.005 to 250 nM
23 | CO[C@@H]1CC[C@H](N2C(=O)CNc3ncc(-c4ccc(-c5nnc[nH]5)nc4C)nc32)C1 [Example 226, 1-((1S,3R)-3-methoxycyclopentyl)-7-(2-methyl-6-(4H-1,2,4-triazol-3-yl)pyridin-3-yl)-3,4-dihydropyrazino[2,3-b]pyrazin-2(1H)-one] | 0.005 to 250 nM
24 | CO[C@H]1CC[C@H](CN2CC(=O)Nc3ncc(-c4ccc(-c5nc[nH]n5)nc4)nc32)CC1 [Example 5] | 0.005 to 250 nM
25 | CC(C)(O)c1ccc(-c2cnc3c(n2)N(CC2CCOCC2)CC(=O)N3)cc1 [Example 90, 6-(4-(2-hydroxypropan-2-yl)phenyl)-4-((tetrahydro-2H-pyran-4-yl)methyl)-3,4-dihydropyrazino[2,3-b]pyrazin-2(1H)-one] | 0.005 to 250 nM
26 | Cc1cc(-c2cnc3c(n2)N(CC2CCOCC2)C(=O)CN3)cc2[nH]c(N)nc12 [Example 264, 7-(2-amino-4-methyl-1H-benzo[d]imidazol-6-yl)-1-((tetrahydro-2H-pyran-4-yl)methyl)-3,4-dihydropyrazino[2,3-b]pyrazin-2(1H)-one] | 0.005 to 250 nM
27 | CO[C@H]1CC[C@H](CN2C(=O)CNc3ncc(-c4cnc(C(N)=O)cc4C)nc32)CC1 [Example 206, 5-(8-((trans-4-methoxycyclohexyl)methyl)-7-oxo-5,6,7,8-tetrahydropyrazino[2,3-b]pyrazin-2-yl)-4-methylpicolinamide] | 1000 to 10000 nM
28 | CO[C@H]1CC[C@H](N2CC(=O)Nc3ncc(-c4cnc(C(N)=O)cc4C)nc32)CC1 [Example 35, 5-(S-(trans-4-methoxycyclohexyl)-6-oxo-5,6,7,8-tetrahydropyrazino[2,3-b]pyrazin-2-yl)-4-methylpicolinamide] | 0.005 to 250 nM
29 | O=C1CNc2ncc(-c3ccc(-c4nc[nH]n4)nc3)nc2N1C1CCOCC1 [Example 162, 7-(6-(1H-1,2,4-triazol-3-yl)pyridin-3-yl)-1-(tetrahydro-2H-pyran-4-yl)-3,4-dihydropyrazino[2,3-b]pyrazin-2(1H)-one] | 0.005 to 250 nM
30 | CCN1C(=O)CNc2ncc(-c3ccc4[nH]ccc4n3)nc21 [Example 154, 1-ethyl-7-(1H-pyrrolo[3,2-b]pyridin-5-yl)-3,4-dihydropyrazino[2,3-b]pyrazin-2(1H)-one] | 1000 to 10000 nM
31 | CO[C@@H]1CC[C@H](N2CC(=O)Nc3ncc(-c4ccc(-c5nnc[nH]5)nc4C)nc32)C1 [Example 39, 4-((1S,3R)-3-methoxycyclopentyl)-6-(2-methyl-6-(4H-1,2,4-triazol-3-yl)pyridin-3-yl)-3,4-dihydropyrazino[2,3-b]pyrazin-2(1H)-one] | 0.005 to 250 nM
32 | CC(C)(O)c1ccc(-c2cnc3c(n2)N(C[C@H]2CCCO2)CC(=O)N3)cn1 [Example 116, (R)-6-(6-(2-hydroxypropan-2-yl)pyridin-3-yl)-4-((tetrahydrofuran-2-yl)methyl)-3,4-dihydropyrazino[2,3-b]pyrazin-2(1H)-one] | 500 to 1000 nM
33 | Cc1cc(-c2nnc[nH]2)ccc1-c1cnc2c(n1)NC(=O)CN2 [Example 239, 7-(2-methyl-4-(4H-1,2,4-triazol-3-yl)phenyl)-3,4-dihydropyrazino[2,3-b]pyrazin-2(1H)-one] | 0.005 to 250 nM
34 | O=C1CNc2ncc(-c3ccc(-c4nnc[nH]4)c(F)c3)nc2N1CCC1CCOCC1 [Example 243, 7-(3-fluoro-4-(4H-1,2,4-triazol-3-yl)phenyl)-1-(2-(tetrahydro-2H-pyran-4-yl)ethyl)-3,4-dihydropyrazino[2,3-b]pyrazin-2(1H)-one] | 0.005 to 250 nM

Reference: US11292796B2 (SIGNAL PHARMACEUTICALS, LLC, priority 2008, dated 2022)
